Experimental data as given in patent publication US10532075B2, “Use of a particular extract of propolis for combating the side effects of chemotherapy” (POLLENERGIE, priority 2014, dated 2020).

Assays:
[1] = test system: red blood cells; test: in-vivo side effects of chemotherapy: change in red blood cells
Source text: (§1) Wistar rats of approximately 200 g were used during this in-vivo experiment, at a rate of 8 animals per group. […] The animals are sacrificed 21 days after the injection of the chemotherapy agent. The weight and the different parameters of the blood formula will be tracked in these animals on days D+1, D+6 and D+14 and D+21 post-chemotherapy injection. The contents of endogenic antioxidants (glutathione=GSH) and the hepatocytic lipid peroxidation (MDA) levels will be evaluated on D+21.

[2] = test system: plasmatic creatinine; test: in-vivo side effects of chemotherapy: plasmatic creatinine
Source text: as §1

[3] = test system: plasma MDA; test: in-vivo side effects of chemotherapy: plasma MDA
Source text: as §1
(§2) The chemotherapy agents also have an impact on the primary intracellular antioxidant: glutathione (GSH) and on oxidative damage through the formation of diene conjugates, which is a reflection of the lipid peroxidation of the cellular membranes (the MDA) on the plasmatic level. These two measurements are complementary since normally a correct level of GSH makes it possible to maintain a relatively low level of MDA.

[4] = in-vivo side effects of chemotherapy: change in weight of the animals
Source text: as §1

[5] = test system: plasmatic glutathione (GSH); test: in-vivo side effects of chemotherapy: plasmatic glutathione
Source text: as §1, §2

[6] = test system: white blood cells; test: in-vivo side effects of chemotherapy: change in white blood cells
Source text: as §1

[7] = test system: Primary hepatocytes of rats; test: reversion of chemotherapy agent toxicity: hepatocyte cytolysis after propolis pretreatment, then tamoxifen; assay type: cell-based; details: tamoxifen alone
Protocol: Primary hepatocytes of rats were sampled and inoculated into a 96-well plate. 24 hours after the inoculation, the hepatocytes were treated with different doses of propolis (Example 1) for 24 hours.
The percentage of hepatic cells that are cytolyzed after a pretreatment with different concentrations of propolis and then subjected to a cytotoxic concentration of tamoxifen (25 μM) was evaluated and presented in the table below: […]

[8] = chemotherapy agent alone, 21st day post-injection
[9] = chemotherapy agent alone, D + 1 post-injection
[10] = chemotherapy agent alone, D + 6 post-injection
[11] = chemotherapy agent alone, D + 14 post-injection
[12] = chemotherapy agent alone, D + 21 post-injection
[13] = chemotherapy agent alone, D − 5 (before treatment)
[14] = chemotherapy agent alone, 21st day

Question: For O=P1(N(CCCl)CCCl)NCCCO1 (stereo not shown) [Cyclophosphamide, cyclophosphamide], which “red blood cells: Variation between D + 1 and D + 21” value ([1]; chemotherapy agent alone) is on record?
Answer: −46%

Question: What about the “reduction in red blood cells” value [1, 8] of the same compound?
Answer: 45%

Question: What about the red blood cells [1, 9] of the same compound?
Answer: 5.94

Question: What about the red blood cells [1, 10] of the same compound?
Answer: 4.23

Question: And the red blood cells [1, 11]?
Answer: 3.80

Question: And the red blood cells [1, 12]?
Answer: 3.22

Question: And the red blood cells [1, 13]?
Answer: 6.51

Question: What about the “plasmatic creatinine: Variation between D − 5 and D + 21” value ([2]; chemotherapy agent alone) of the same compound?
Answer: +59%

Question: What about the plasmatic creatinine [2, 9] of the same compound?
Answer: 7.25

Question: And the plasmatic creatinine [2, 12]?
Answer: 10.14

Question: And the plasmatic creatinine [2, 13]?
Answer: 6.38

Question: And the “plasma MDA: Variation between D − 5 and D + 21” value ([3]; chemotherapy agent alone)?
Answer: +48%

Question: And the “plasma MDA” value [3, 12]?
Answer: 79.10

Question: And the “plasma MDA” value [3, 13]?
Answer: 43.78

Question: What about the “weight: Variation between D + 1 and D + 21” value ([4]; chemotherapy agent alone) of the same compound?
Answer: −14.9

Question: What about the “weight of the animals” value [4, 9] of the same compound?
Answer: 167.2

Question: What about the “weight of the animals” value [4, 10] of the same compound?
Answer: 157.7

Question: And the “weight of the animals” value [4, 11]?
Answer: 164

Question: And the “weight of the animals” value [4, 12]?
Answer: 152.3

Question: And the “weight of the animals” value [4, 13]?
Answer: 160.4

Question: And the “plasmatic glutathione: Variation between D − 5 and D + 21” value ([5]; chemotherapy agent alone)?
Answer: −10%

Question: What about the “effect on the level of plasma GSH (in words)” value (shortened to “effect on the level”) [5, 14] of the same compound?
Answer: a little less distinct

Question: What about the plasmatic glutathione [5, 12] of the same compound?
Answer: 23.81

Question: What about the plasmatic glutathione [5, 13] of the same compound?
Answer: 26.39

Question: And the “white blood cells: Variation between D − 5 and D + 21” value ([6]; chemotherapy agent alone)?
Answer: −49%

Question: And the white blood cells [6, 9]?
Answer: 3.33

Question: And the white blood cells [6, 10]?
Answer: 2.96

Question: And the white blood cells [6, 11]?
Answer: 10.20

Question: And the white blood cells [6, 12]?
Answer: 3.19

Question: What about the white blood cells [6, 13] of the same compound?
Answer: 6.30

Question: For COc1cccc2c1C(=O)c1c(O)c3c(c(O)c1C2=O)C[C@@](O)(C(=O)CO)C[C@@H]3O[C@H]1C[C@H](N)[C@@H](O)[C@H](C)O1 [Epirubicin, epirubicin], which red blood cells ([1]; rat, in vivo) is on record?
Answer: 6.73 10^6/µL

Question: And the “red blood cells: Variation between D + 1 and D + 21” value ([1]; rat, in vivo)?
Answer: −48%

Question: What about the “reduction in red blood cells” value ([1]; rat, in vivo) of the same compound?
Answer: 48%

Question: And the “plasmatic creatinine: Variation between D − 5 and D + 21” value ([2]; rat, in vivo)?
Answer: +60%

Question: And the “plasma MDA” value ([3]; rat, in vivo)?
Answer: 46.61

Question: What about the “plasma MDA: Variation between D − 5 and D + 21” value ([3]; rat, in vivo) of the same compound?
Answer: +83%

Question: And the “weight of the animals” value ([4]; rat, in vivo)?
Answer: 150.2

Question: What about the “weight: Variation between D + 1 and D + 21” value ([4]; rat, in vivo) of the same compound?
Answer: −0.9

Question: And the “effect on the level” value ([5]; rat, in vivo)?
Answer: very distinct significant decrease in the level of plasma GSH

Question: What about the plasmatic glutathione ([5]; rat, in vivo) of the same compound?
Answer: 23.86

Question: What about the “plasmatic glutathione: Variation between D − 5 and D + 21” value ([5]; rat, in vivo) of the same compound?
Answer: −46%

Question: What about the white blood cells ([6]; rat, in vivo) of the same compound?
Answer: 6.79

Question: What about the “white blood cells: Variation between D − 5 and D + 21” value ([6]; rat, in vivo) of the same compound?
Answer: −46%

Question: Which results are given for O=c1[nH]cc(F)c(=O)[nH]1 [Powder 5-FU, 5-FU]?
Answer: red blood cells: Variation between D + 1 and D + 21 ([1]; chemotherapy agent alone): −55%; reduction in red blood cells [1, 8]: 55%; red blood cells [1, 9]: 6.56; red blood cells [1, 10]: 4.19; red blood cells [1, 11]: 3.05; red blood cells [1, 12]: 2.94; red blood cells [1, 13]: 6.51; plasmatic creatinine: Variation between D − 5 and D + 21 ([2]; chemotherapy agent alone): +41%; plasmatic creatinine [2, 9]: 9; plasmatic creatinine [2, 12]: 10.19; plasmatic creatinine [2, 13]: 7.25; plasma MDA: Variation between D − 5 and D + 21 ([3]; chemotherapy agent alone): +41%; plasma MDA [3, 12]: 62.85; plasma MDA [3, 13]: 44.49; weight: Variation between D + 1 and D + 21 ([4]; chemotherapy agent alone): −13.9; weight of the animals [4, 9]: 157.6; weight of the animals [4, 10]: 153.7; weight of the animals [4, 11]: 147.9; weight of the animals [4, 12]: 143.7; weight of the animals [4, 13]: 153.5; plasmatic glutathione: Variation between D − 5 and D + 21 ([5]; chemotherapy agent alone): −20%; effect on the level of plasma GSH (in words) [5, 14]: very distinct significant decrease in the level of plasma GSH; plasmatic glutathione [5, 12]: 17.65; plasmatic glutathione [5, 13]: 22.14; white blood cells: Variation between D − 5 and D + 21 ([6]; chemotherapy agent alone): −40%; white blood cells [6, 9]: 3.91; white blood cells [6, 10]: 2.74; white blood cells [6, 11]: 10.82; white blood cells [6, 12]: 3.86; white blood cells [6, 13]: 6.49

Question: For CC/C(=C(\c1ccccc1)c1ccc(OCCN(C)C)cc1)c1ccccc1 [Tamoxifen, tamoxifen], which “cytolysis of hepatocytes (in words)” value [7] is on record?
Answer: dose-dependent cytolysis of hepatocytes

Question: Which red blood cells ([1]; rat, in vivo) does the source give for CC(=O)O[C@@]12CO[C@@H]1C[C@H](O)[C@@]1(C)C(=O)[C@H](O)C3=C(C)[C@@H](OC(=O)[C@H](O)[C@@H](NC(=O)OC(C)(C)C)c4ccccc4)C[C@@](O)([C@@H](OC(=O)c4ccccc4)[C@H]21)C3(C)C [Taxotere, taxotere] here?
Answer: 6.39 10^6/µL

Question: What about the “red blood cells: Variation between D + 1 and D + 21” value ([1]; rat, in vivo) of the same compound?
Answer: −52%

Question: What about the “reduction in red blood cells” value ([1]; rat, in vivo) of the same compound?
Answer: 52%

Question: And the plasmatic creatinine ([2]; rat, in vivo)?
Answer: 7.60

Question: And the “plasmatic creatinine: Variation between D − 5 and D + 21” value ([2]; rat, in vivo)?
Answer: +52%

Question: What about the “plasma MDA” value ([3]; rat, in vivo) of the same compound?
Answer: 45.90

Question: And the “plasma MDA: Variation between D − 5 and D + 21” value ([3]; rat, in vivo)?
Answer: +88%

Question: What about the “weight of the animals” value ([4]; rat, in vivo) of the same compound?
Answer: 151.6

Question: What about the “weight: Variation between D + 1 and D + 21” value ([4]; rat, in vivo) of the same compound?
Answer: +18.6

Question: What about the “effect on the level” value ([5]; rat, in vivo) of the same compound?
Answer: very distinct significant decrease in the level of plasma GSH

Question: And the plasmatic glutathione ([5]; rat, in vivo)?
Answer: 22.88

Question: And the “plasmatic glutathione: Variation between D − 5 and D + 21” value ([5]; rat, in vivo)?
Answer: −26%

Question: And the white blood cells ([6]; rat, in vivo)?
Answer: 6.44

Question: And the “white blood cells: Variation between D − 5 and D + 21” value ([6]; rat, in vivo)?
Answer: −51%
